Data: patent US20240150334A1, “HSD17B13 INHIBITORS AND/OR DEGRADERS” (Pfizer Inc., priority 2022, published 2024)
Where a name gives a salt, the structure may show the parent alone.

What was measured:
[1] = biological target: HSD17B13 enzyme (Homo sapiens (Human), UniProt Q7Z5P4); assay: hHSD17B13 IC50 Assay (FAC beta-estradiol), purified protein enzyme activity assay with NAD(P)H-Glo luciferase readout; type: biochemical; conditions: geometric mean, 12 μM FAC beta-estradiol, 500 μM NAD+, read-out: hHSD17B13_IC50 GMean IC50
Procedure: The following protocols may of course be varied by those skilled in the art. hHSD17B13 IC50 Assay (FAC beta-estradiol)
HSD17B13 enzyme inhibition potency of test compounds was determined using a purified protein biochemical enzyme activity assay, using NAD(P)H-Glo luciferase readout (Promega). HSD17B13 enzyme uses the oxidized form of nicotinamide adenine dinucleotide (NAD+) as a cofactor during metabolism of Beta-Estradiol (substrate) to […], while converting NAD+ to the reduced form (NADH). The Promega NAD(P)H-Glo™ assay is a homogeneous bioluminescent assay that generates a light signal from biochemical reactions that contain NADH (or nicotinamide adenine dinucleotide phosphate, NADPH). In the presence of NADH (or NADPH), the enzyme Reductase reduces a proluciferin reductase substrate to form luciferin. Luciferin then is quantified using Ultra-Glo™ Recombinant Luciferase (rLuciferase), and the light signal produced is proportional to the amount of NAD(P)H in the sample. […] The reaction was initiated by the addition of 2 μL/well purified HSD17B13 protein (30 nM FAC in assay buffer). Compound, substrate mix and HSD17B13 protein was incubated in the dark at room temperature for 2 hours before the addition of 3 μL/well NAD(P)H-Glo detection reagent, prepared from luciferase detection reagent and reductase/reductase substrate, as per manufacturer's instructions (Promega, G9061). Detection reagent was incubated in the dark for 1 hour at room temperature before plates were read on the Envision plate reader (Perkin Elmer) using a luminescent protocol. Data expressed as relative luminescent units (RLUs) were then normalized to control wells using Activity Base (IDBS). Zero percent effect (ZPE) was defined as RLUs generated from uninhibited HSD17B13 protein (vehicle control).

[2] = biological target: wild type human HSD17B13 (Homo sapiens (Human), UniProt Q7Z5P4); assay: HEK_Beta-Est LCMS_IC50_Tekcel, whole-cell HEK-HSD17B13 inhibition assay, estrone production by LCMS; type: cell-based; conditions: geometric mean, HEK cells stably expressing wild type human HSD17B13, 25 μM FAC beta-estradiol, read-out: HEK_Beta-Est LCMS_IC50—Tekcel GMean IC50
How it was run: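 Readout was LCMS quantitation of estrone made from beta-estradiol with NAD+ as cofactor. Whole HEK-HSD17B13 cells were given compound for 1 hour, then the reaction for 2 hours, both at 37° C. Product area ratios were normalized to vehicle controls as zero percent effect.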

wild type human HSD17B13, sequence (Q7Z5P4 20-300): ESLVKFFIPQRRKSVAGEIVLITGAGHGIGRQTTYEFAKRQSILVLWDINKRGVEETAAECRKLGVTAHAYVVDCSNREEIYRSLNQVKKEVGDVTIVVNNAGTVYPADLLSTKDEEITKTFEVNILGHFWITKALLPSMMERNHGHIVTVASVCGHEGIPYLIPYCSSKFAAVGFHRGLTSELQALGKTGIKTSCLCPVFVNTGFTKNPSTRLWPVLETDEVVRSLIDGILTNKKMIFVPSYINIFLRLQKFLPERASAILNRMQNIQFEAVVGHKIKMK
HSD17B13 enzyme, sequence (Q7Z5P4 20-300): as above

| SMILES | IC50 [1] [nM] | IC50 [2] [nM] |
| --- | --- | --- |
| O=C(NC[C@H]1CC[C@H](c2nc3ccccc3o2)CC1)c1cc(F)c(O)c(F)c1 [Example 1, N-{[(1r,4r)-4-(1,3-Benzoxazol-2-yl)cyclohexyl]methyl}-3,5-difluoro-4-hydroxybenzamide] | 14 | 490 |
| O=C(NC[C@H]1CC[C@H](c2nc(-c3ccc(C(F)(F)F)cn3)no2)CC1)c1cc(F)c(O)c(F)c1 [Example 2, 3,5-Difluoro-4-hydroxy-N-{[(1r,4r)-4-{3-[5-(trifluoromethyl)pyridin-2-yl]-1,2,4-oxadiazol-5-yl}cyclohexyl]methyl}benzamide] | 12 | 470 |
| O=C(NC[C@H]1CC[C@H](c2nc(-c3ncc(C(F)(F)F)cn3)no2)CC1)c1cc(F)c(O)c(F)c1 [Example 4, 3,5-Difluoro-4-hydroxy-N-{[(1r,4r)-4-{3-[5-(trifluoromethyl)pyrimidin-2-yl]-1,2,4-oxadiazol-5-yl}cyclohexyl]methyl}benzamide] | 5.5 | 290 |
| Cn1cc(-c2ccc3cn([C@H]4CC[C@H](CNC(=O)c5cc(F)c(O)c(F)c5F)CC4)nc3c2)cn1 [Example 5, 2,3,5-Trifluoro-4-hydroxy-N-({(1r,4r)-4-[6-(1-methyl-1H-pyrazol-4-yl)-2H-indazol-2-yl]cyclohexyl}methyl)benzamide, trifluoroacetate salt] | > 2500 | 72 |
| COc1cc2cn([C@H]3CC[C@H](CNC(=O)c4cc(F)c(O)c(F)c4)CC3)nc2cn1 [Example 6, 3,5-Difluoro-4-hydroxy-N-{[(1r,4r)-4-(5-methoxy-2H-pyrazolo[3,4-c]pyridin-2-yl)cyclohexyl]methyl}benzamide] | 21 | 440 |
| COc1ncc(-c2cc3nn([C@H]4CC[C@H](CNC(=O)c5cc(F)c(O)c(F)c5)CC4)cc3cn2)cn1 [Example 8, 3,5-Difluoro-4-hydroxy-N-({(1r,4r)-4-[6-(2-methoxypyrimidin-5-yl)-2H-pyrazolo[4,3-c]pyridin-2-yl]cyclohexyl}methyl)benzamide] | 18 | 320 |
| O=C(NC[C@H]1CC[C@H](n2cc3ccc(-c4cncnc4)cc3n2)CC1)c1cc(F)c(O)c(F)c1F [Example 9, 2,3,5-Trifluoro-4-hydroxy-N-({(1r,4r)-4-[6-(pyrimidin-5-yl)-2H-indazol-2-yl]cyclohexyl}methyl)benzamide] | 13 | 170 |
| O=C(NC[C@H]1CC[C@H](n2cc3ccc(-c4cnn(C5CCOCC5)c4)cc3n2)CC1)c1cc(F)c(O)c(F)c1 [Example 12, 3,5-Difluoro-4-hydroxy-N-{[(1r,4r)-4-{6-[1-(oxan-4-yl)-1H-pyrazol-4-yl]-2H-indazol-2-yl}cyclohexyl]methyl}benzamide] | 11 | 290 |
| O=C(NC[C@H]1CC[C@H](c2noc(-c3ccc(C(F)(F)F)cn3)n2)CC1)c1cc(F)c(O)c(F)c1 [Example 13, 3,5-Difluoro-4-hydroxy-N-{[(1r,4r)-4-{5-[5-(trifluoromethyl)pyridin-2-yl]-1,2,4-oxadiazol-3-yl}cyclohexyl]methyl}benzamide] | 17 | 470 |
| COc1ccc(-c2noc([C@]34CC[C@](CNC(=O)c5cc(F)c(O)c(F)c5F)(CC3)CC4)n2)nn1 [Example 15, 2,3,5-Trifluoro-4-hydroxy-N-({4-[3-(6-methoxypyridazin-3-yl)-1,2,4-oxadiazol-5-yl]bicyclo[2.2.2]octan-1-yl}methyl)benzamide] | 7.1 | 220 |
| O=C(NC[C@H]1CC[C@H](n2cc3ccc(F)cc3n2)CC1)c1cc(F)c(O)c(F)c1 [Example 16, 3,5-Difluoro-N-{[(1r,4r)-4-(6-fluoro-2H-indazol-2-yl)cyclohexyl]methyl}-4-hydroxybenzamide, ammonium salt] | 17 | 310 |
| CC(C)(C)C(=O)Nc1ccc(-c2noc([C@H]3CC[C@H](CNC(=O)c4cc(F)c(O)c(F)c4)CC3)n2)nn1 [Example 17, N-{[(1r,4r)-4-{3-[6-(2,2-Dimethylpropanamido)pyridazin-3-yl]-1,2,4-oxadiazol-5-yl}cyclohexyl]methyl}-3,5-difluoro-4-hydroxybenzamide, ammonium salt] | 12 | 270 |
| O=C(NC[C@H]1CC[C@H](n2cc(-c3ccc4nccnc4c3)nn2)CC1)c1cc(F)c(O)c(F)c1 [Example 18, 3,5-Difluoro-4-hydroxy-N-({(1r,4r)-4-[4-(quinoxalin-6-yl)-1H-1,2,3-triazol-1-yl]cyclohexyl}methyl)benzamide] | 18 | 420 |
| Cn1ccc(-c2ccc3c(c2)CN([C@H]2CC[C@H](CNC(=O)c4cc(F)c(O)c(F)c4)CC2)C3=O)n1 [Example 20, 3,5-Difluoro-4-hydroxy-N-({(1r,4r)-4-[5-(1-methyl-1H-pyrazol-3-yl)-1-oxo-1,3-dihydro-2H-isoindol-2-yl]cyclohexyl}methyl)benzamide] | 16 | 490 |
| O=C(NC[C@H]1CC[C@H](n2cc3ccccc3n2)CC1)c1cc(F)c(O)c(F)c1 [Example 22, 3,5-difluoro-4-hydroxy-N-{[(1r,4r)-4-(2H-indazol-2-yl)cyclohexyl]methyl} benzamide] | 20 | 390 |
| COc1ccc2cn([C@H]3CC[C@H](CNC(=O)c4cc(F)c(O)c(F)c4)CC3)nc2c1 [Example 23, 3,5-difluoro-4-hydroxy-N-{[(1r,4r)-4-(6-methoxy-2H-indazol-2-yl)cyclohexyl]methyl} benzamide] | 20 |  |
| O=C(NC[C@H]1CC[C@H](n2cc3ccc(-c4ncccn4)cc3n2)CC1)c1cc(F)c(O)c(F)c1 [Example 24, 3,5-difluoro-4-hydroxy-N-({(1r,4r)-4-[6-(pyrimidin-2-yl)-2H-indazol-2-yl]cyclohexyl}methyl) benzamide] | 14 | 120 |
| O=C(NC[C@H]1CC[C@H](n2cc3ccc(Cl)cc3n2)CC1)c1cc(F)c(O)c(F)c1F [Example 25, N-{[(1r,4r)-4-(6-chloro-2H-indazol-2-yl)cylohexyl]methyl}-2,3,5-trifluoro-4-hydroxybenzamide] | 14 | 300 |
| O=C(NC[C@H]1CC[C@H](n2cc3ccc(-c4ncccn4)cc3n2)CC1)c1cc(F)c(O)c(F)c1F [Example 27, 2,3,5-trifluoro-4-hydroxy-N-({(1r,4r)-4-[6-(pyrimidin-2-yl)-2H-indazol-2-yl]cyclohexyl}methyl) benzamide] | 12 | 180 |
| O=C(NC[C@H]1CC[C@H](n2cc3ccc(-c4cnccn4)cc3n2)CC1)c1cc(F)c(O)c(F)c1F [Example 28, 2,3,5-trifluoro-4-hydroxy-N-({(1r,4r)-4-[6-(pyrazin-2-yl)-2H-indazol-2-yl]cyclohexyl}methyl)benzamide] | 8.7 | 170 |
| O=C(NC[C@H]1CC[C@H](n2cc3cc(OCC4CC4)ncc3n2)CC1)c1cc(F)c(O)c(F)c1 [Example 32, N-({(1r,4r)-4-[5-(cyclopropyl-methoxy)-2H-pyrazolo[3,4-c]pyridin-2-yl]cyclohexyl}methyl)-3,5-difluoro-4-hydroxybenzamide, ammonium salt] | 25 | 400 |
| Cn1cc(-c2ccc3cn([C@H]4CC[C@H](CNC(=O)c5cc(F)c(O)c(F)c5)CC4)nc3c2)c(C(F)F)n1 [Example 34, N-{[(1r,4r)-4-{6-[3-(difluoromethyl)-1-methyl-1H-pyrazol-4-yl]-2H-indazol-2-yl}cyclohexyl]methyl}-3,5-difluoro-4-hydroxybenzamide] | 4.3 | 310 |
| O=C(NC[C@]12CC[C@](n3cc4ccc(-c5cnccn5)cc4n3)(CC1)CC2)c1cc(F)c(O)c(F)c1 [Example 208, 3,5-difluoro-4-hydroxy-N-({4-[6-(pyrazin-2-yl)-2H-indazol-2-yl]bicyclo [2.2.2]octan-1-yl}methyl)benzamide] |  | 120 |
| Cn1cc(-c2ccc3cn([C@]45CC[C@](CNC(=O)c6cc(F)c(O)c(F)c6F)(CC4)CC5)nc3c2)cn1 [Example 209, 2,3,5-trifluoro-4-hydroxy-N-({4-[6-(1-methyl-1H-pyrazol-4-yl)-2H-indazol-2-yl]bicyclo[2.2.2]octan-1-yl}methyl)benzamide] |  | 150 |
| Cc1noc([C@H]2CC[C@H](CNC(=O)c3cc(F)c(O)c(F)c3)CC2)n1 [Example 213, 3,5-difluoro-4-hydroxy-N-{[(1r,4r)-4-(3-methyl-1,2,4-oxadiazol-5-yl)cyclohexyl]methyl}benzamide] | 64 |  |
| Cc1noc([C@H]2CC[C@H](CNC(=O)c3ccc(O)c(F)c3)CC2)n1 [Example 214, 3-fluoro-4-hydroxy-N-{[(1r,4r)-4-(3-methyl-1,2,4-oxadiazol-5-yl)cyclohexyl]methyl} benzamide] | 290 |  |
